Converted amounts (≈) assume the structure as drawn.
Tested on: MCF-7 human breast cancer cells (fatty acid synthesis pathway activity)
Test: [14C]acetate incorporation into total lipids
Assay type: cell-based
Conditions: MCF7, [14C]acetate incorporation into lipids
Protocol: Measurement of [^14C]acetate Incorporation into Total Lipids and Determination of IC50 of Compounds. This assay measures the incorporation of [^14C]acetate into total lipids and is a measure of fatty acid synthesis pathway activity in vitro. It is utilized to measure inhibition of fatty acid synthesis in vitro.
MCF-7 human breast cancer cells cultured as above, are plated at 5×10^4 cells per well in 24-well plates. Following overnight incubation, the compounds to be tested, solubilized in DMSO, are added at 5, 10, and 20 μg/ml in triplicate, with lower concentrations tested if necessary. DMSO is added to triplicate wells for a vehicle control. C75 is run at 5 and 10 μg/ml in triplicate as positive controls. After 4 hours of incubation, 0.25 μCi of [^14C]acetate (10 μl volume) is added to each well.
After 2 hours of additional incubation, medium is aspirated from the wells and 800 μl of chloroform:methanol (2:1) and 700 μl of 4 mM MgCl2 is added to each well. Contents of each well are transferred to 1.5 Eppendorf tubes, and spun at full-speed for 2 minutes in a high-speed Eppendorf Microcentrifuge 5415D. After removal of the aqueous (upper) layer, an additional 700 μl of chloroform:methanol (2:1) and 500 μl of 4 mM MgCl2 are added to each tube and then centrifuged for 1 minutes as above. The aqueous layer is removed with a Pasteur pipette and discarded. An additional 400 μl of chloroform:methanol (2:1) and 200 μl of 4 mM MgCl2 are added to each tube, then centrifuged and aqueous layer is discarded. The lower (organic) phase is transferred into a scintillation vial and dried at 40° C. under N2 gas. Once dried, 3 ml of scintillant (APB #NBC5104) is added and vials are counted for ^14C. The Beckman Scintillation counter calculates the average cpm values for triplicates.
The IC50 for the compounds is defined as the concentration of drug leading to a 50% reduction in [^14C]acetate incorporation into lipids compared to controls. This is determined by plotting the average cpm for each inhibitor concentration tested, performing linear regression and computing the best-fit line, r^2 values, and 95% confidence intervals. The average cpm values are computed by the Beckman scintillation counter (Model LS6500) for each compound concentration. Computation of linear regression, best-fit line, r^2, and 95% confidence intervals are calculated using Prism Version 3.0 (Graph Pad Software).

Structure (SMILES)	IC50
CCCCCCCCC1(C)SC(=O)C=C1OCC(=O)Nc1ccc(Cl)cc1 (stereo not drawn)	19.2 ± 2 µg/mL (≈ 46.8 µM)
CCCCCCCCC1(C)SC(=O)C=C1OCC(=O)Nc1ccc(OC)cc1 (stereo not drawn)	23 µg/mL (≈ 56.7 µM)
CCCCCCCCOc1ccc(NC(=O)COC2=CC(=O)SC2(C)CCCCCCCC)cc1 (stereo not drawn)	> 80 µg/mL
CCCCCCCCC1(C)SC(=O)C=C1OCC(=O)Nc1ccc(-c2cccs2)cc1 (stereo not drawn)	80.2 µg/mL (≈ 175 µM)
CCCCCCCCC1(C)SC(=O)C=C1OCC(=O)Nc1ccc(Oc2ccc(Cl)cc2)cc1 (stereo not drawn)	> 80 µg/mL
CCCCCCCCC1(C)SC(=O)C=C1OCC(=O)Nc1ccc(C(F)(F)F)cc1 (stereo not drawn)	< 2.5 µg/mL
CCCCCCCCC1(C)SC(=O)C=C1OCC(=O)Nc1ccc(OC(F)(F)F)cc1 (stereo not drawn)	8.2 µg/mL (≈ 17.8 µM)
CCCCCCCC[C@]1(C)SC(=O)C=C1OCC(=O)Nc1ccccc1C(F)(F)F	> 80 µg/mL
CCCCCCCC[C@]1(C)SC(=O)C=C1OCC(=O)Nc1ccccc1OC(F)(F)F	> 80 µg/mL
CCCCCCCCC1(C)SC(=O)C=C1OCC(=O)Nc1cccc(C(F)(F)F)c1 (stereo not drawn)	12.3 µg/mL (≈ 27.7 µM)
CCCCCCCCC1(C)SC(=O)C=C1OCC(=O)Nc1cccc(OC(F)(F)F)c1 (stereo not drawn)	17.1 µg/mL (≈ 37.2 µM)
CCCCCCCCC1(C)SC(=O)C=C1OCC(=O)Nc1ccccc1SC (stereo not drawn)	> 80 µg/mL
CCCCCCCCC1(C)SC(=O)C=C1OCC(=O)Nc1ccc(SC)cc1 (stereo not drawn)	> 80 µg/mL

Tested on: not listed separately
Test: Weight loss screen
Assay type: in vivo, Balb/C mice
Conditions: 60 mg/kg intraperitoneally, day 1
Protocol: Weight Loss Screen Balb/C mice (Jackson Labs) are utilized for the initial weight loss screening. Animals are housed in temperature and 12 hour day/night cycle rooms and fed mouse chow and water ad lib. Three mice are utilized for each compound tested with vehicle controls in triplicate per experiment. For the experiments, mice are housed separately for each compound tested three mice to a cage. Compounds are diluted in DMSO at 10 mg/ml and mice are injected intraperitoneally with 60 mg/kg in approximately 100 μl of DMSO or with vehicle alone. Mice are observed and weighed daily; average weights and standard errors are computed with Excel (Microsoft). The experiment continues until treated animals reach their pretreatment weights.

Structure (SMILES)	Weight Loss
CCCCCCCCC1(C)SC(=O)C=C1OCC(=O)Nc1ccc(Cl)cc1 (stereo not drawn)	60 mg/kg: 0.2% (day 1)
CCCCCCCCC1(C)SC(=O)C=C1OCC(=O)Nc1ccc(OC(F)(F)F)cc1 (stereo not drawn)	60 mg/kg: 2.2% (day 1)

Same assay, conditions: 60 mg/kg intraperitoneally, day 4

Structure (SMILES)	Weight Loss
CCCCCCCCC1(C)SC(=O)C=C1OCC(=O)Nc1ccc(Oc2ccc(Cl)cc2)cc1 (stereo not drawn)	60 mg/kg: 3.1% (day 4)

Tested on: MCF-7 human breast cancer cells (fatty acid oxidation pathway activity)
Test: Fatty acid oxidation ([14C]palmitate to acid soluble products)
Assay type: cell-based
Conditions: Homo sapiens, MCF7; at 0.098 μg/ml; read-out: FAO Max
Protocol: Measurement of Fatty Acid Oxidation and Determination of SC150 of Compounds This assay measures the degradation of [^14C]palmitate into acid soluble products and is a measure of fatty acid oxidation pathway activity in vitro. It is utilized to measure fatty acid oxidation in vitro. MCF-7 human breast cancer cells cultured as above, are plated at 2.5×10^5 cells per well in 24-well plates. Following overnight incubation, the compounds to be tested, solubilized in DMSO, are added at […], 0.39, 1.56, 6.25, 25, and 100 μg/ml in triplicate, with lower concentrations tested if necessary. DMSO is added to triplicate wells for a vehicle control. C75 is run at 5 and 10 μg/ml in triplicate as positive controls. After 1 hour of incubation, medium is removed 100 uM of [^14C] palmitate in cyclodextran and 200 uM carnitine in serum free medium (250 μl volume) is added to each well. After 30 minutes of additional incubation, the reaction is stopped by addition of 2.6N HClO4. Contents of each well are transferred to 1.5 ml Eppendorf tubes and 4N KOH is added. The tubes are incubated for 30 minutes at 60° C. 1 M NaAcetate and 3N H2SO4 is added to each tube and vortexed. The tubes are centrifuged at 1000 rpm for 5 minutes at RT. 250 μl of the supernatant is transferred to a 2 ml eppendorf tube. To each tube is added: 938 μl of chloroform:methanol (1:1), 468 μl chloroform and 281 μl of deionized water. The tubes are vortexed and centrifuged at 1000 rpm for 5 minutes at RT. 750 μl of the upper phase is transferred into a scintillation vial 5 ml of scintillant is added and vials are counted for 1 minute for ^14C. The Beckman Scintillation counter calculates the average cpm values for triplicates. The SC150 for the compounds is defined as the concentration of drug leading to a 150% increase in production of acid soluble products of [^14C] palmitate as compared to untreated controls. This is determined by plotting the average cpm for each inhibitor concentration tested, performing linear regression and computing the best-fit line, r^2 values, and 95% confidence intervals. The average cpm values are computed by the Beckman scintillation counter (Model LS6500) for each compound concentration. Computation of linear regression, best-fit line, r^2, and 95% confidence intervals are calculated using Prism Version 3.0 (Graph Pad Software). If a compound fails to achieve this 150% threshold it is considered negative. The maximum value achieved is also reported (FAO Max).

Structure (SMILES)	Emax at 0.098 µg/mL
CCCCCCCCC1(C)SC(=O)C=C1OCC(=O)Nc1ccc(OC)cc1 (stereo not drawn)	90%
CCCCCCCCOc1ccc(NC(=O)COC2=CC(=O)SC2(C)CCCCCCCC)cc1 (stereo not drawn)	97%
CCCCCCCCC1(C)SC(=O)C=C1OCC(=O)Nc1ccc2c(c1)OCO2 (stereo not drawn)	45%
CCCCCCCCC1(C)SC(=O)C=C1OCC(=O)Nc1ccccc1 (stereo not drawn)	122%

Same assay, conditions: Homo sapiens, MCF7; at 0.39 μg/ml; read-out: FAO Max

Structure (SMILES)	Emax at 0.39 µg/mL
CCCCCCCCC1(C)OC(=O)C=C1OCC(=O)Nc1ccc(Cl)cc1 (stereo not drawn)	95%

Same assay, conditions: Homo sapiens, MCF7; at 0.395 μg/ml; read-out: FAO Max

Structure (SMILES)	Emax at 0.395 µg/mL
CCCCCCCCC1(C)SC(=O)C=C1OCC(=O)Nc1cccc(C(F)(F)F)c1 (stereo not drawn)	75%

Same assay, conditions: Homo sapiens, MCF7; at 1.56 μg/ml; read-out: FAO Max

Structure (SMILES)	Emax at 1.56 µg/mL
CCCCCCCCC1(C)SC(=O)C=C1OCC(=O)Nc1ccc(Cl)cc1 (stereo not drawn)	106%
CCCCCCCCC1(C)SC(=O)C=C1OCC(=O)Nc1ccccc1N1CCCCC1 (stereo not drawn)	119%
CCCCCCCCC1(C)SC(=O)C=C1OCC(=O)Nc1ccc(Cl)cc1C(F)(F)F (stereo not drawn)	141%
CCCCCCCC[C@]1(C)SC(=O)C=C1OCC(=O)Nc1ccccc1C(F)(F)F	105%
CCCCCCCCC1(C)SC(=O)C=C1OCC(=O)Nc1cccc(OC(F)(F)F)c1 (stereo not drawn)	122%
CCCCCCCCC1(C)SC(=O)C=C1OCC(=O)Nc1ccc(Cl)cc1Cl (stereo not drawn)	141%

Same assay, conditions: Homo sapiens, MCF7; at 6.25 μg/ml; read-out: FAO Max

Structure (SMILES)	Emax at 6.25 µg/mL
CCCCCCCCC1(C)SC(=O)C=C1OCC(=O)Nc1ccc(Oc2ccc(Cl)cc2)cc1 (stereo not drawn)	109%
CCCCCCCCC1(C)SC(=O)C=C1OCC(=O)Nc1ccc(C(F)(F)F)cc1 (stereo not drawn)	130%
CCCCCCCCC1(C)SC(=O)C=C1OCC(=O)Nc1ccccc1SC (stereo not drawn)	114%
CCCCCCCCC1(C)SC(=O)C=C1OCC(=O)Nc1ccc(SC)cc1 (stereo not drawn)	100%

Same assay, conditions: Homo sapiens, MCF7; at 25 μg/ml; read-out: FAO Max

Structure (SMILES)	Emax at 25 µg/mL
CCCCCCCC[C@]1(C)SC(=O)C=C1OCC(=O)Nc1ccccc1OC(F)(F)F	116%

Same assay, conditions: Homo sapiens, MCF7; at 100 μg/ml; read-out: FAO Max

Structure (SMILES)	Emax at 100 µg/mL
CCCCCCCCC1(C)SC(=O)C=C1OCC(=O)Nc1ccc(-c2cccs2)cc1 (stereo not drawn)	168%

Same assay, conditions: concentration leading to 150% of control acid soluble products; Neg = threshold not reached

Structure (SMILES)	FAO SC 150
CCCCCCCCC1(C)SC(=O)C=C1OCC(=O)Nc1ccc(Cl)cc1 (stereo not drawn)	Neg
CCCCCCCCC1(C)SC(=O)C=C1OCC(=O)Nc1ccc(OC)cc1 (stereo not drawn)	Neg
CCCCCCCCOc1ccc(NC(=O)COC2=CC(=O)SC2(C)CCCCCCCC)cc1 (stereo not drawn)	Neg
CCCCCCCCC1(C)SC(=O)C=C1OCC(=O)Nc1ccc(-c2cccs2)cc1 (stereo not drawn)	61.9 µg/mL
CCCCCCCCC1(C)SC(=O)C=C1OCC(=O)Nc1ccc(Oc2ccc(Cl)cc2)cc1 (stereo not drawn)	Neg
CCCCCCCCC1(C)SC(=O)C=C1OCC(=O)Nc1ccc(C(F)(F)F)cc1 (stereo not drawn)	Neg
CCCCCCCCC1(C)SC(=O)C=C1OCC(=O)Nc1ccc2c(c1)OCO2 (stereo not drawn)	Neg
CCCCCCCCC1(C)SC(=O)C=C1OCC(=O)Nc1ccccc1N1CCCCC1 (stereo not drawn)	Neg
CCCCCCCCC1(C)SC(=O)C=C1OCC(=O)Nc1ccccc1 (stereo not drawn)	Neg
CCCCCCCCC1(C)SC(=O)C=C1OCC(=O)Nc1ccc(Cl)cc1C(F)(F)F (stereo not drawn)	1.9 µg/mL
CCCCCCCC[C@]1(C)SC(=O)C=C1OCC(=O)Nc1ccccc1C(F)(F)F	Neg
CCCCCCCC[C@]1(C)SC(=O)C=C1OCC(=O)Nc1ccccc1OC(F)(F)F	Neg
CCCCCCCCC1(C)SC(=O)C=C1OCC(=O)Nc1cccc(C(F)(F)F)c1 (stereo not drawn)	Neg
CCCCCCCCC1(C)SC(=O)C=C1OCC(=O)Nc1cccc(OC(F)(F)F)c1 (stereo not drawn)	Neg
CCCCCCCCC1(C)SC(=O)C=C1OCC(=O)Nc1ccccc1SC (stereo not drawn)	Neg
CCCCCCCCC1(C)SC(=O)C=C1OCC(=O)Nc1ccc(SC)cc1 (stereo not drawn)	Neg
CCCCCCCCC1(C)SC(=O)C=C1OCC(=O)Nc1ccc(Cl)cc1Cl (stereo not drawn)	Neg
CCCCCCCCC1(C)OC(=O)C=C1OCC(=O)Nc1ccc(Cl)cc1 (stereo not drawn)	Neg

Tested on: not listed separately
Test: Solubility problem noted during the assays
Assay type: physicochemical
Conditions: FAS assay

Structure (SMILES)	Solubility remark on FAS IC50
CCCCCCCCC1(C)SC(=O)C=C1OCC(=O)Nc1ccc(Cl)cc1 (stereo not drawn)	Limited by Solubility

Same assay, conditions: read-out: Sol Prob (solubility problem at concentration)

Structure (SMILES)	solubility
CCCCCCCC[C@]1(C)SC(=O)C=C1OCC(=O)Nc1ccccc1C(F)(F)F	80 µg/mL (≈ 180 µM)
CCCCCCCCC1(C)SC(=O)C=C1OCC(=O)Nc1cccc(C(F)(F)F)c1 (stereo not drawn)	80 µg/mL (≈ 180 µM)
CCCCCCCCC1(C)SC(=O)C=C1OCC(=O)Nc1cccc(OC(F)(F)F)c1 (stereo not drawn)	40 µg/mL (≈ 87 µM)
CCCCCCCCC1(C)SC(=O)C=C1OCC(=O)Nc1ccccc1SC (stereo not drawn)	40 µg/mL (≈ 94.9 µM)
CCCCCCCCC1(C)SC(=O)C=C1OCC(=O)Nc1ccc(SC)cc1 (stereo not drawn)	40 µg/mL (≈ 94.9 µM)
CCCCCCCCC1(C)SC(=O)C=C1OCC(=O)Nc1ccc(Cl)cc1Cl (stereo not drawn)	40 µg/mL (≈ 90 µM)
CCCCCCCCC1(C)OC(=O)C=C1OCC(=O)Nc1ccc(Cl)cc1 (stereo not drawn)	80 µg/mL (≈ 203 µM)
